ChEMBL document CHEMBL1144616, “Synthesis and biological evaluation of 7-azaindole derivatives, synthetic cytokinin analogues” (Bioorg Med Chem Lett, 2007)
Calls of active or inactive are those of the source. No cut-off for these calls is given here.

How the values were obtained:
HL-60 [1] = test: Antiproliferative activity against human HL60 cells; type: functional, cell-based
HL-60 [2] = test: Proapoptotic effect in human HL60 cells at 10 uM; type: functional, cell-based
HL-60 [3] = test: Proapoptotic effect in human HL60 cells at 500 uM; type: functional, cell-based
HL-60 [4] = test: Cell cycle arrest in human HL60 cells assessed as increase in preG1 fraction relative to control; type: functional

Compound | IC50 (HL-60 [1]) | Activity (HL-60 [2]) | Activity (HL-60 [3]) | Activity (HL-60 [4])
c1ccc(N2CCN(c3ccnc4[nH]ccc34)CC2)cc1 | 23.6 µM | Active | – | –
c1ccc(CNc2ccnc3[nH]ccc23)cc1 | 12.6 µM | Active | – | –
c1ccc(CNc2ncnc3[nH]cnc23)cc1 [6-BENZYLAMINOPURINE] | > 100 µM | – | – | –
Cn1ccc2c(Nc3ccccc3)ccnc21 | > 100 µM | – | Active | –
Cn1ccc2c(NCCc3ccccc3)ccnc21 | > 100 µM | – | Active | –
c1ccc(Nc2ccnc3[nH]ccc23)cc1 | 23.5 µM | Active | – | 39.9%
c1coc(CNc2ncnc3[nH]cnc23)c1 [KINETIN] | 21.9 µM | – | – | –
c1ccc(CCNc2ccnc3[nH]ccc23)cc1 | 23.7 µM | Active | – | –
Cn1ccc2c(N3CCN(c4ccccc4)CC3)ccnc21 | > 100 µM | – | Active | –
Cn1ccc2c(NCc3ccccc3)ccnc21 | > 100 µM | – | Active | –
